Literature values in US9293280B2, “Mixture of hydrofluoroolefine and hydrofluorocarbide to improve the internal ARC resistance in medium and high voltage electric apparatus” (priority 2012, dated 2016).

Key:
[1] = system: human; conditions: average limiting content, 8 hours of work for 5 days per week without harmful effect
[2] = system: animal population; conditions: causing the death of 50% of an animal population

O=C(C(F)(F)F)C(F)(C(F)(F)F)C(F)(F)F [C5K, decafluoro-2-methylbutan-3-one]
average exposure value AEV [1]: 1000 ppm | lethal dose LD50 [2]: greater than 200 000 ppm

F/C=C/C(F)(F)F [HFO-1234ze, trans-1,3,3,3-tetrafluoro-1-propene]
average exposure value AEV [1]: 1000 ppm | lethal dose LD50 [2]: > 200 000 ppm
